According to publication PMC9500805, “Cytotoxic Assessment of 3,3-Dichloro-β-Lactams Prepared through Microwave-Assisted Benzylic C-H Activation from Benzyl-Tethered Trichloroacetamides Catalyzed by RuCl2(PPh3)3” (Molecules, 2022):
Converted amounts (≈) assume the structure as drawn.

How the values were obtained:
[1] = Hemolysis assay with human erythrocytes; type: cell-based; conditions: human erythrocyte suspension, PBS pH 7.4, mean ± SD; for hemolysis at 10 µg/mL: compound at 10 µg/mL; for hemolysis at 80 µg/mL: compound at 80 µg/mL
Experimental: Human blood samples were obtained from the Banc de Sang i Teixits de Barcelona (Spain) from the Catalan Department of Health. Blood was deposited in tubes with the anticoagulant EDTA-K3. Blood samples were centrifuged at 3000 rpm at 4 °C for 10 min (Megafuge 2.0 R. Heraeus Instruments, Hanau, Germany) to induce sedimentation. Plasma was extracted with a Pasteur pipette. Next, the residual pellet was washed with PBS at pH 7.4. This procedure was repeated three times to remove residual leukocytes and platelets and to concentrate the erythrocytes. Following the last wash, the erythrocyte suspension was diluted (1:1) in PBS at pH 7.4 to obtain a suitable erythrocyte suspension (cell density of 8 × 10^9 cell/mL).
The hemolysis assay determined the capability of the different compounds to induce hemolysis of the erythrocyte membrane. Stock solutions of each compound at 1 mg/mL in PBS at pH 7.4 were prepared. Different volumes (10–80 µL) were placed in polystyrene tubes, and an aliquot of 25 µL of the erythrocyte suspensions was added to each tube. The final volume was 1 mL. The tubes were incubated at room temperature under rotatory conditions. Next, the tubes were centrifuged at 10,000 rpm for 5 min. The supernatants’ absorbance at 540 nm (Shimadzu UV-160A, Shimadzu, Duisburg, Germany) was compared with that of the control samples hemolyzed with distilled water (positive control). The negative control was obtained by incubating an aliquot of 25 µL of the erythrocyte suspension with PBS at pH 7.4.
The degree of hemolysis was determined with the following equation:Hemolysis (%) = 100 × (Abs − Ab0)/(Abs100 − Abs0) where Abs, Abs0 and Abs100 are the absorbance of test samples, of the suspension treated with isotonic physiological buffer saline (PBS) and of the suspension of complete hemolysis treated with distilled water, respectively.

[2] = test system: HaCaT cells; assay: Cell viability, MTT assay, HaCaT; type: cell-based; conditions: Homo sapiens, 24 h, MTT endpoint, 10–250 µg/mL tested
Experimental: (§1) The immortal human keratinocyte (HaCaT) and the squamous cell carcinoma (A431) cell lines were obtained from Celltec UB. Cells were grown in DMEM medium (4.5 g/L glucose) supplemented with 10% (v/v) FBS, 2 mM L-glutamine, 100 U/mL penicillin and 100 µg/mL streptomycin at 37 °C, 5% CO2. Cells were routinely cultured in 75 cm^2 culture flasks and were trypsinized using trypsin–EDTA when the cells reached approximately 80% confluence. The trypan blue assay, which allows a direct identification and enumeration of live (unstained) and dead (blue) cells in a given population, was used to evaluate the viability of the cells in the cell suspension obtained.
(§2) HaCaT cells (1 × 10^5 cells/mL) and A431 cells (5 × 10^4 cells/mL) were grown at the defined densities in the 60 central wells of a 96-well plate. Cells were incubated for 24 h in 5% CO2 at 37 °C. Then, the spent medium was removed, and cells were incubated for 24 h with the corresponding compound solutions (1 mg/mL) previously diluted in the minimum amount of DMF (dimethylformamide) and then in DMEM medium supplemented with 5% FBS (100 µL) at the required concentration range (10–250 µg/mL). The viability of the cells upon incubation with the β-lactam derivatives was assayed using 2 different endpoints: NRU and MTT.
(§3) Only living cells can reduce the yellow tetrazolium salt 3-(4,5-dimethyl-2-thiazolyl)-2,5-diphenyltetrazolium bromide (MTT) to insoluble purple formazan crystals. After 24 h of incubation of the cells with the corresponding NPs, the medium was removed, and 100 µL of MTT (Sigma-Aldrich, St. Louis, United States) in PBS (5 mg/mL) diluted 1:10 in culture medium without phenol red and without FBS (Lonza, Verviers, Belgium) was added to the cells. After 3 h of incubation, the medium was removed. Thereafter, 100 µL of DMSO (Sigma-Aldrich, St. Louis, MO, USA) was added to each well to dissolve the purple formazan crystals. Agitation and determination of the absorbance of the extracted solution were performed under the same conditions, as described in Section 3.4.1. Finally, the effect of each treatment was calculated as the percentage of tetrazolium salt reduction by viable cells relative to the control cells (cells without any treatment).
(§4) The corresponding half-maximal inhibitory concentration (IC50) values for the different formulations as a function of cell line and endpoint were determined from the fitting of concentration-dependent viability curves.

[3] = test system: HaCaT cells; assay: Cell viability, NRU assay, HaCaT; type: cell-based, human; conditions: 24 h, NRU endpoint, 10–250 µg/mL tested; for IC50: Homo sapiens
Experimental: as §1, §2
(§5) The neutral red uptake (NRU) assay is based on the accumulation of the dye in the lysosomes of viable cells. After the cells were incubated for 24 h with the corresponding systems, the medium was removed, and the solutions were incubated with the NR dye (Sigma-Aldrich, St. Louis, MO, USA) solution (50 µg/mL) dissolved in the medium without FBS and without phenol red (Lonza, Verviers, Belgium) for 3 h. Cells were then washed with sterile PBS, followed by the addition of 100 µL of a solution containing 50% absolute ethanol and 1% acetic acid in distilled water to extract the dye. To promote total dissolution of the dye, plates were placed in a microtiter-plate shaker for 5 min at room temperature. The absorbance of the resulting solutions was measured at 550 nm (Bio-Rad 550 microplate reader, Bio-Rad California, Hercules, CA, USA). Finally, the effect of each treatment was calculated as the percentage of dye uptake by viable cells relative to the control cells (cells without any treatment).
as §4

[4] = test system: A431 cells; assay: Cell viability, MTT assay, A431; type: cell-based, human; conditions: for IC50: Homo sapiens, A-431, 24 h, A431, 24 h, MTT endpoint, 10–250 µg/mL tested; for SI MTT: SI = IC50 HaCaT / IC50 A431, MTT endpoint
Experimental: as §1, §2, §3, §4
(§6) The corresponding selectivity indexes toward tumoral cells were calculated as the following ratio:SI = IC50 (non-tumoral cell line)/IC50 (tumoral cell line) where HaCaT keratinocytes were used as close representatives of a skin model cell line under non-tumoral conditions.

[5] = test system: A431 cells; assay: Cell viability, NRU assay, A431; type: cell-based, human; conditions: for IC50: Homo sapiens, A-431, 24 h, A431, 24 h, NRU endpoint, 10–250 µg/mL tested; for SI NRU: SI = IC50 HaCaT / IC50 A431, NRU endpoint
Experimental: as §1, §2, §5, §4, §6

[6] = test system: HaCaT cells; assay: Cell viability, HaCaT, MTT and NRU endpoints taken together; type: cell-based; conditions: Homo sapiens, 24 h, span over or independent of endpoint method
Experimental: as §1, §2
as §5, with “Cells were then washed with sterile PBS, followed by the addition of 100 µL of a solution containing 50% absolute ethanol and 1% acetic acid in distilled water to extract the dye. To promote total dissolution of the dye, plates were placed in a microtiter-plate shaker for 5 min at room temperature.” left out
Only living cells can reduce the yellow tetrazolium salt 3-(4,5-dimethyl-2-thiazolyl)-2,5-diphenyltetrazolium bromide (MTT) to insoluble purple formazan crystals. […] Agitation and determination of the absorbance of the extracted solution were performed under the same conditions, as described in Section 3.4.1. Finally, the effect of each treatment was calculated as the percentage of tetrazolium salt reduction by viable cells relative to the control cells (cells without any treatment).
as §4

[7] = test system: A431 cells; assay: Cell viability, A431, MTT and NRU endpoints taken together; type: cell-based; conditions: Homo sapiens, A-431; A431, 24 h, span over or independent of endpoint method
Experimental: as §1, §2, §5, §3, §4

[8] = Cell viability-screening assays (MTT and NRU), both cell lines; type: cell-based, human; conditions: human, HaCaT keratinocytes and A431 squamous cell carcinoma cells; HaCaT and A431, MTT and NRU, 24 h, 10–250 µg/mL; as a function of cell type and endpoint method; read-out: percentage viability compared to control cells
Experimental: as §1, §2, §5, §3

[9] = test system: HaCaT and A431 cells; assay: as above; type: cell-based, human; conditions: regardless of the concentration range
Experimental: as §1, §2, §5, §3

[10] = test system: human MCF-7 breast cancer cells; set-up: method as in PMID 21397510; conditions: cited from earlier work
[11] = human, pH 7.4, human RBC suspension

Row | Compound | hemolysis at 10 µg/mL ([1]; human RBC suspension) [%] | hemolysis at 80 µg/mL ([1]; human RBC suspension) [%] | IC50 [2] [µg/mL] | IC50 [3] [µg/mL] | IC50 [4] [µg/mL] | SI MTT [4] | IC50 [5] [µg/mL] | SI NRU [5] | IC50 [6] [µg/mL] | IC50 [7] [µg/mL] | viability at 24 h [8] [%] | hemolysis at 10 µg/mL [1, 11] [%] | hemolysis at 80 µg/mL [1, 11] [%] | selectivity against the cell type (HaCaT vs A431 cytotoxicity) [9] | IC50 HaCaT NRU [3] [µg/mL] | IC50 [10] [nM]
1 | CC(C)(C)N1C(=O)C(Cl)(Cl)C1c1ccccc1 (centres unmarked) [2b] | 0.01 ± 0.01 | 2.5 ± 0.97 | 19.8 (≈ 72.8 µM) | 48.3 (≈ 177 µM) | 46.9 (≈ 172 µM) | 0.42 | 29.5 (≈ 109 µM) | 1.63 | 20 to 49 (≈ 73.5 to 180 µM) | 30 to 47 (≈ 110 to 173 µM) | < 20 |  |  |  |  | 
2 | Cc1ccccc1C1N(C(C)(C)C)C(=O)C1(Cl)Cl (centres unmarked) [2c] |  |  | ~250 (≈ 874 µM) | > 250 | ~250 (≈ 874 µM) | 1.0 | > 250 | >1.0 |  |  | ≤ 50 | 0.01 ± 0.01 | 0.01 ± 0.01 |  |  | 
3 | Cc1ccc(C2N(C(C)(C)C)C(=O)C2(Cl)Cl)cc1 (centres unmarked) [2e] |  |  | 92.6 (≈ 324 µM) | 78.8 (≈ 275 µM) | 180 (≈ 629 µM) | 0.51 | 121 (≈ 422 µM) | 0.65 | 78 to 93 (≈ 273 to 325 µM) | 120 to 180 (≈ 419 to 629 µM) | < 20 | 0.01 ± 0.01 | 0.2 ± 0.23 | higher cytotoxicity in HaCaT cells than in A431 cells |  | 
4 | CC(C)(C)N1C(=O)C(Cl)(Cl)C1c1cc(F)cc(F)c1 (centres unmarked) [2h] |  |  | > 250 | > 250 | 250 (≈ 811 µM) | >1.0 | 250 (≈ 811 µM) | >1.0 | > 250 | ~250 (≈ 811 µM) | ≤ 50 | 0.05 ± 0.05 | 0.12 ± 0.09 | the opposite results |  | 
5 | CC(C)N1C(=O)C(Cl)(Cl)C1c1ccccc1 (centres unmarked) [2j] |  |  | 42.1 (≈ 163 µM) | 40.1 (≈ 155 µM) | 76.2 (≈ 295 µM) | 0.55 | 37.9 (≈ 147 µM) | 1.06 | 40 to 42 (≈ 155 to 163 µM) | 38 to 76 (≈ 147 to 294 µM) | < 20 | 0.01 ± 0.01 | 0.02 ± 0.02 |  |  | 
6 | O=C1N(C2CCCCC2)C(c2ccccc2)C1(Cl)Cl (centres unmarked) [2k] |  |  | > 250 | ~220 (≈ 738 µM) | 250 (≈ 838 µM) | >1.0 | 220 (≈ 738 µM) | >1.13 |  | > 250 | < 20 | ~0.25 | 0.3 ± 0.21 |  | >250 | 
7 | COc1ccc([C@@H]2[C@@H](c3ccsc3)C(=O)N2c2cc(OC)c(OC)c(OC)c2)cc1O [II] |  |  |  |  |  |  |  |  |  |  |  |  |  |  |  | 10
8 | COc1ccc([C@@H]2[C@@H](c3cccs3)C(=O)N2c2cc(OC)c(OC)c(OC)c2)cc1O [I] |  |  |  |  |  |  |  |  |  |  |  |  |  |  |  | 7
